# What was measured:
# [1] = target: T1, Protein O-GlcNAcase (Homo sapiens) (UniProt O60502); assay: Inhibition of recombinant human OGA expressed in Escherichia coli BL21 (DE3) at 20 uM using 4-Mu-GlcNAc as substrate preincubated for 10 mins followed by substrate addition and measured after 30 mins by fluorescence assay relative to control
# T1 sequence (whole entry): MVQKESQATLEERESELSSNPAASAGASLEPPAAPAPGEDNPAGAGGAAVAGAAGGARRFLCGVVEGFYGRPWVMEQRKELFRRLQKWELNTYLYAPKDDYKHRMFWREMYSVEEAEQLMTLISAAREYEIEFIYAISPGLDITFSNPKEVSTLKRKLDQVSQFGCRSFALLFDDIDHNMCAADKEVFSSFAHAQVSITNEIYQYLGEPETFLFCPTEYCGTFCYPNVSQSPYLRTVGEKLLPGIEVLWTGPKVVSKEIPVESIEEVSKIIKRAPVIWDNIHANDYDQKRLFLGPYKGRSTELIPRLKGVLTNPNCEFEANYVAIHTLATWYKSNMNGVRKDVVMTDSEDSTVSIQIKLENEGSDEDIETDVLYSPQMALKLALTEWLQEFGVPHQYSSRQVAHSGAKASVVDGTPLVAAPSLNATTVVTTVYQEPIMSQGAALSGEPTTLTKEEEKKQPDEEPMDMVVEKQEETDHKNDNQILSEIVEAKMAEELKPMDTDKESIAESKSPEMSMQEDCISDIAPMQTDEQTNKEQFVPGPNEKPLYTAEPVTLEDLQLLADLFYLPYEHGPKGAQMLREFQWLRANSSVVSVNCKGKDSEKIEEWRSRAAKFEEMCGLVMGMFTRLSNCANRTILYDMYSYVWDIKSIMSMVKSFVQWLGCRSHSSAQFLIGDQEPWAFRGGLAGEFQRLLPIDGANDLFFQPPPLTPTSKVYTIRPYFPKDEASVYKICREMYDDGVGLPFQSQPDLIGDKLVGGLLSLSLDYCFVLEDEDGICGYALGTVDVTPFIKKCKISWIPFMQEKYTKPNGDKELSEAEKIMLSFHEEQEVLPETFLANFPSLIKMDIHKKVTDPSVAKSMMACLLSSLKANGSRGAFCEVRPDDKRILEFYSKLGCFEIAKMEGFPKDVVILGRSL
# [2] = target: T2, Beta-hexosaminidase subunit beta (Homo sapiens) (UniProt P07686); assay: Inhibition of recombinant human His6-tagged HexB expressed in Pichia pastoris at 20 uM using 4-Mu-GlcNAc as substrate preincubated for 10 mins followed by substrate addition and measured after 30 mins by fluorescence assay relative to control
# T2 sequence (whole entry): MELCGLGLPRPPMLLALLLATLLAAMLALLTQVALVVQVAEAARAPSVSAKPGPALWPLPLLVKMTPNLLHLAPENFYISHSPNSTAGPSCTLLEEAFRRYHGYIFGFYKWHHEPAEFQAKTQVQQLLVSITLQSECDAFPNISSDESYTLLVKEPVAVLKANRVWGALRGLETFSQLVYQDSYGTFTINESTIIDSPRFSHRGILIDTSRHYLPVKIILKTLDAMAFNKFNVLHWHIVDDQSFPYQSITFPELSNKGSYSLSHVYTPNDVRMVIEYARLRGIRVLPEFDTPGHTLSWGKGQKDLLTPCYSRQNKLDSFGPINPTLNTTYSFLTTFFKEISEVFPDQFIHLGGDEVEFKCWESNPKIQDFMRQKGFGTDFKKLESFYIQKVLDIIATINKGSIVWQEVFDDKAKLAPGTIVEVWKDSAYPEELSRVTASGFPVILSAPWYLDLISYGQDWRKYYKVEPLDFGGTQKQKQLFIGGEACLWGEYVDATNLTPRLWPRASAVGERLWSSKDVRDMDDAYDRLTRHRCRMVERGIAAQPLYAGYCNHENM
# Protein O-GlcNAcase [3] = target: T3, Protein O-GlcNAcase (Homo sapiens, UniProt O60502); assay: Inhibition of recombinant human OGA expressed in Escherichia coli BL21 (DE3) using varying levels of 4-Mu-GlcNAc as substrate preincubated for 10 mins followed by substrate addition and measured after 30 mins by dixon plot analysis
# T3 sequence (O60502 whole entry): T1 sequence (whole entry)
# Homo sapiens = organism: Homo sapiens; assay: Selectivity ratio of Ki for recombinant human His6-tagged HexB expressed in Pichia pastoris to Ki for recombinant human OGA expressed in Escherichia coli BL21 (DE3)
# [4] = target: T2, Beta-hexosaminidase subunit beta (Homo sapiens); assay: Inhibition of recombinant human His6-tagged HexB expressed in Pichia pastoris at 100 uM using varying levels of 4-Mu-GlcNAc as substrate preincubated for 10 mins followed by substrate addition and measured after 30 mins by dixon plot analysis relative to control
# [5] = target: T4, Beta-hexosaminidase subunit beta (Homo sapiens, UniProt P07686); assay: Inhibition of recombinant human His6-tagged HexB expressed in Pichia pastoris using 4-Mu-GlcNAc as substrate preincubated for 10 mins followed by substrate addition and measured after 30 mins by fluorescence assay
# T4 sequence (P07686 whole entry): T2 sequence (whole entry)
# Protein O-GlcNAcase [6] = target: T3, Protein O-GlcNAcase; assay: Inhibition of recombinant human OGA expressed in Escherichia coli BL21 (DE3) using 4-Mu-GlcNAc as substrate preincubated for 10 mins followed by substrate addition and measured after 30 mins by fluorescence assay
# [7] = target: T4, Beta-hexosaminidase subunit beta; assay: Inhibition of recombinant human His6-tagged HexB expressed in Pichia pastoris using varying levels of 4-Mu-GlcNAc as substrate preincubated for 10 mins followed by substrate addition and measured after 30 mins by dixon plot analysis
# [8] = target: T1, Protein O-GlcNAcase (Homo sapiens); assay: Inhibition of recombinant human OGA expressed in Escherichia coli BL21 (DE3) at 20 uM using 4-Mu-GlcNAc as substrate measured after 30 mins by fluorescence assay relative to control
# [9] = target: T2, Beta-hexosaminidase subunit beta (Homo sapiens); assay: Inhibition of recombinant human His6-tagged HexB expressed in Pichia pastoris at 20 uM using 4-Mu-GlcNAc as substrate measured after 30 mins by fluorescence assay relative to control
# [10] = Inhibition of Ostrinia furnacalis beta-N-acetylhexosaminidase using pNP-beta-GlcNAc as substrate by dixon plot analysis
# [11] = target: Beta-hexosaminidase (Homo sapiens); assay: Inhibition of human beta-N-acetylhexosaminidase using pNP-beta-GlcNAc as substrate by dixon plot analysis
inhibition [1] [%],inhibition [2] [%],Ki (Protein O-GlcNAcase [3]) [nM],Ratio Ki (Homo sapiens),Ki [7] [nM],Structure (SMILES),further results
67.5,0,3200,> 31.2,–,CC(=O)N[C@@H]1[C@@H](O)[C@H](O)[C@@H](CO)O[C@H]1SCCCNCCN1C(=O)c2cccc3c(N4CCCCC4)ccc(c23)C1=O,inhibition [4]: < 50%
32.6,0,–,–,–,CC(=O)N[C@@H]1[C@@H](O)[C@H](O)[C@@H](CO)O[C@H]1SCCNCCN1C(=O)c2cccc3c(N(C)C)ccc(c23)C1=O,IC50 [5]: > 100000 nM; IC50 (Protein O-GlcNAcase [6]): 25000 nM
73.2,73.3,1200,2.2,2600,CC(=O)N[C@@H]1[C@@H](O)[C@H](O)[C@@H](CO)O[C@H]1SCCNCCN1C(=O)c2cccc3c(Br)ccc(c23)C1=O,–
75.7,60.6,3500,1.5,5100,CC(=O)N[C@@H]1[C@@H](O)[C@H](O)[C@@H](CO)O[C@H]1SCCCNCCN1C(=O)c2cccc3c(Br)ccc(c23)C1=O,–
84.7,70.5,900,2,1800,CC(=O)N[C@@H]1[C@@H](O)[C@H](O)[C@@H](CO)O[C@H]1SCCNCCCN1C(=O)c2cccc3c(Br)ccc(c23)C1=O,–
25.6,0,–,–,–,CC(=O)N[C@@H]1[C@@H](O)[C@H](O)[C@@H](CO)O[C@H]1SCCCNCCN1C(=O)c2cccc3c([N+](=O)[O-])ccc(c23)C1=O,–
59.2,65,2200,2,4400,CC(=O)N[C@@H]1[C@@H](O)[C@H](O)[C@@H](CO)O[C@H]1SCCCNCCCN1C(=O)c2cccc3c(Br)ccc(c23)C1=O,–
40.9,0,–,–,–,CC(=O)N[C@@H]1[C@@H](O)[C@H](O)[C@@H](CO)O[C@H]1SCCNCCCN1C(=O)c2cccc3c(N(C)C)ccc(c23)C1=O,–
28.2,0,–,–,–,CC(=O)N[C@@H]1[C@@H](O)[C@H](O)[C@@H](CO)O[C@H]1SCCCNCCCN1C(=O)c2cccc3c(N(C)C)ccc(c23)C1=O,–
49.1,0,–,–,–,CC(=O)N[C@@H]1[C@@H](O)[C@H](O)[C@@H](CO)O[C@H]1SCCCNCCCN1C(=O)c2cccc3c(N4CCCCC4)ccc(c23)C1=O,–
20,0,–,–,–,CC(=O)N[C@@H]1[C@@H](O)[C@H](O)[C@@H](CO)O[C@H]1SCCCNCCCN1C(=O)c2cccc3c([N+](=O)[O-])ccc(c23)C1=O,–
66.1,73.8,2000,0.6,1200,CC(=O)N[C@@H]1[C@@H](O)[C@H](O)[C@@H](CO)O[C@H]1SCCNCCN1C(=O)c2cccc3c(Cl)ccc(c23)C1=O,–
83.6,75.2,700,2.3,1600,CC(=O)N[C@@H]1[C@@H](O)[C@H](O)[C@@H](CO)O[C@H]1SCCCNCCN1C(=O)c2cccc3c(Cl)ccc(c23)C1=O,–
25.1,13.8,–,–,–,CC(=O)N[C@@H]1[C@@H](O)[C@H](O)[C@@H](CO)O[C@H]1SCCNCCN1C(=O)c2cccc3c([N+](=O)[O-])ccc(c23)C1=O,–
36.7,0,–,–,–,CC(=O)N[C@@H]1[C@@H](O)[C@H](O)[C@@H](CO)O[C@H]1SCCNCCN1C(=O)c2cccc3c(N4CCCCC4)ccc(c23)C1=O,–
73.1,47.9,1600,13.8,22100,COc1ccc2c3c(cccc13)C(=O)N(CCCNCCS[C@@H]1O[C@H](CO)[C@@H](O)[C@H](O)[C@H]1NC(C)=O)C2=O,–
87.6,0,600,> 167,–,CC(=O)N[C@@H]1[C@@H](O)[C@H](O)[C@@H](CO)O[C@H]1SCCNCCCN1C(=O)c2cccc3c(N4CCCCC4)ccc(c23)C1=O,inhibition [4]: < 50%
–,–,–,8,–,CC(=O)N[C@@H]1[C@@H](O)[C@H](O)[C@@H](CO)O[C@H]1SCCNCCCN1C(=O)c2cccc3cccc(c23)C1=O,inhibition [8]: 82.4%; inhibition [9]: 38.7%
55,8,8300,> 12,–,CC(=O)N[C@@H]1[C@@H](O)[C@H](O)[C@@H](CO)O[C@H]1SCCNCCCN1C(=O)c2cccc3c([N+](=O)[O-])ccc(c23)C1=O,inhibition [4]: < 50%
–,–,–,–,–,Cc1nnc(CNCCN2C(=O)c3cccc4cccc(c34)C2=O)s1,Ki [10]: 4300 nM; Ki [11]: 2200 nM
34.3,39,–,–,–,COc1ccc2c3c(cccc13)C(=O)N(CCNCCCS[C@@H]1O[C@H](CO)[C@@H](O)[C@H](O)[C@H]1NC(C)=O)C2=O,–
68,45.2,15900,1.6,24700,COc1ccc2c3c(cccc13)C(=O)N(CCCNCCCS[C@@H]1O[C@H](CO)[C@@H](O)[C@H](O)[C@H]1NC(C)=O)C2=O,–
26.6,0,–,–,–,CC(=O)N[C@@H]1[C@@H](O)[C@H](O)[C@@H](CO)O[C@H]1SCCCNCCN1C(=O)c2cccc3c(N(C)C)ccc(c23)C1=O,–
–,–,–,–,–,Cc1nnc(CNCCN2C(=O)c3cccc4c(N(C)C)ccc(c34)C2=O)s1,Ki [10]: 300 nM; Ki [11]: > 100000 nM
56.4,22.5,6700,8.4,56200,COc1ccc2c3c(cccc13)C(=O)N(CCNCCS[C@@H]1O[C@H](CO)[C@@H](O)[C@H](O)[C@H]1NC(C)=O)C2=O,–
83.3,70.8,800,2,1600,CC(=O)N[C@@H]1[C@@H](O)[C@H](O)[C@@H](CO)O[C@H]1SCCNCCCN1C(=O)c2cccc3c(Cl)ccc(c23)C1=O,–
68.9,74.3,2100,0.9,1800,CC(=O)N[C@@H]1[C@@H](O)[C@H](O)[C@@H](CO)O[C@H]1SCCCNCCCN1C(=O)c2cccc3c(Cl)ccc(c23)C1=O,–

# Source: ChEMBL document CHEMBL4325931, “Modification of the Thioglycosyl-Naphthalimides as Potent and Selective Human O-GlcNAcase Inhibitors” (ACS Med Chem Lett, 2018)
